Assay results: patent publication US8609659B2, “Substituted 3,8-diazabicyclo[3.2.1]octane compounds” (Neuroscienze Pharmaness S.C.A.R.L., priority 2009, dated 2013)
Like-named read-outs stand apart in the source and are kept apart here.

Experiments:
[1] = test system: mouse; type: in vivo; details: 5 mg/Kg i.p., average ± SEM of 6 animals
Protocol: In the Tail Flick test it is determined the time elapsed between the exposure of one part of the mouse tail (2 cm measured from the tail tip) to a small heat source and the time when the animal moves away the tail (Ruiu) S. et al. in J. Pharmacol. Exp. Ther.; 306 (1) (2003) 363-370). This time interval is automatically calculated by a specific equipment for the Tail-Flick test (Apparatus for the Tail Flick, Ugo Basile, Italy). The equipment is provided with an infrared lamp that is the heat regulatable source. For avoiding lesions to the tail tissues a maximum latency time has been fixed (cut-off=12 sec), after which the tail is moved away from the heat source.
The values of the latency time obtained in the experimentation were expressed in MPE % (maximum possible effect %), according to the formula:
[formula] wherein: Test Latency is the time in seconds elapsed before the animal moves away the tail from the heat source, Base Latency is the time in seconds elapsed before the same, untreated animal moves away the tail from the heat source.
The analgesic potency of the compound obtained in Example 6.1 was evaluated. The compound was solubilized in an aqueous solution (carrier), formed of a mixture of a physiological solution, ethanol and Cremophor® EL in the ratios by volume: 18.5:1.0:0.5. The blank or control was the carrier. The test compound was administered by intraperitoneal (i.p.) route, by using a solution volume to obtain a dose of 5 mg/kg.
The duration of the analgesic effect was evaluated by determining the MPE % values obtained at different times (20, 40, 60, 120 minutes) from administration of the compound and of the corresponding control (carrier).
Example 13 was repeated but using the compound synthesized in Ex. 6.9. The analgesic activity was evaluated at 30, 60, 120 and 240 minutes from the administration of the compound. The compound was administered at the dose of 5 mg/Kg after solubilization in an aqueous solution (carrier) formed of physiological solution, ethanol and Cremophor® EL in the same ratios as indicated in Example 13.
In order to evaluate the property of the compounds of formula (I) in the modulation of the analgesic effect of morphine, the Tail Flick test was carried out by using either only morphine or morphine in association with the compound of Ex. 6.9. The procedure described in Ex. 13 was repeated by recording the MPE % values at different times from the administration of the tested compounds: 30, 60, 120 and 240 minutes.

[2] = molecular target: T1, k opioidergic receptors (Mus musculus, UniProt P33534); assay: Radioreceptorial binding, k opioidergic receptors (3H-U 69.593, mouse brain membranes)
T1 construct: the complete brain (excluding the cerebellum) was quickly dissected and stored in ice; from tissue; host or cells: CD1 mouse brain (excluding cerebellum) membranes
T1 sequence (P33534 whole entry): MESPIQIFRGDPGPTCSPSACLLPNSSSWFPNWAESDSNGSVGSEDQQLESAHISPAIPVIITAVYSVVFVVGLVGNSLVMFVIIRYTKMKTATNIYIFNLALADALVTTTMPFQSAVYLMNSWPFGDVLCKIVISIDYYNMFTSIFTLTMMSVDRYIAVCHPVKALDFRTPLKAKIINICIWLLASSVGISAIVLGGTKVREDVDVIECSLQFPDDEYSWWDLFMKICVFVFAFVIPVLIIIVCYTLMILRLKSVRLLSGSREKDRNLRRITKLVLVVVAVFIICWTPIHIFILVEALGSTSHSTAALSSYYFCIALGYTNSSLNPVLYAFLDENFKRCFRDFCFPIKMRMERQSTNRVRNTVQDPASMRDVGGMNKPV
From the text: The affinity of the compounds synthesized towards the opioidergic receptors μ, δ, k has been evaluated in vitro by radioreceptorial binding studies by using the method reported hereinunder.
For evaluating the affinity of a compound to a particular receptor(s) it is used a preparation of a tissue wherein the particular receptor(s) is (are) present, with which the compound is contacted. The tested compound is challenged with a radioactive labelled compound whose affinity for the same receptor(s) is known. The ability of the tested compound to displace the radioactive compound from the receptor gives an index of the affinity of the compound under test for the specific receptor. The amount of radioactivity present in the receptor-compound complex allows furthermore to calculate with great accuracy the amount of compound bound to the receptor. By said method it is therefore possible to quickly establish the affinity of a new compound towards a specific receptor and thus determine its pharmacological activity. With the same experimental protocol it is possible to evaluate the affinity of the compound towards other receptors and thus establishing the specificity degree of the compound towards these further receptors.
The experimentation has been carried out according to the guide lines of the European Community for the animal experimentation (EEC n. 86/609), by using laboratory animals (CD1 Charles River Italy male mice, Calco, LC, Italy) lodged twenty per cage, under standard stabulation conditions (temperature 22±2° C., relative humidity 60%, artificial lighting with light/dark cycle of 12 hours). The food and water were ad libitum.
Receptors k: CD1 male mice weighing 20-25 g were used. The animals were sacrificed by cervical dislocation and the complete brain (excluding the cerebellum) was quickly dissected and stored in ice. The tissue was homogeneized in 40 volumes (w/v) of Tris-HCl buffer (50 Mm, pH 7.4) by an Ultra-Turrax, then centrifuged for 20 minutes at 48,000×g in a centrifuge refrigerated at 4° C. The […] was resuspended in the same buffer and incubated at 37° C. for 30 minutes in an oscillating bath. At the end of the incubation the suspension was centrifuged at 48,000×g for 15 minutes and the obtained pellets resuspended in 10 volumes of Tris-HCl buffer. The binding experiment was carried out in a 1 ml volume of the suspension at the temperature of 25° C. with a protein content in the sample of about 800-1000 μg. Incubation was carried out for 60 minutes in the presence of various concentrations of the ligand ^3H-U 69.593 (41.7 Ci/mmole). The non specific binding was determined in the presence of U69593 (10 μM). Incubation was then interrupted by performing a quick filtration by filtration apparatus Brandell®, Gaithersburg, Md., USA), by using GF/C filters (Whatman®). Receptors μ and δ: the experiments were carried out according to the method described by Unterwald (1995), by using CD1 male mice weighing 20-25 g, lodged twenty in a cage, under standard stabulation conditions (temperature 22±2° C., relative humidity 60%, artificial lighting with light/dark cycle of 12 hours). After sacrifice, the complete brain (excluding the cerebellum) was quickly dissected. The so obtained tissues were rapidly homogenized, by a Polytron® equipment in 50 volumes of Tris HCl buffer (50 mM), pH 7.4 and the homogenate centrifuged at 48,000×g for 20 minutes at 4° C. The pellets obtained after centrifugation were suspended in 50 volumes of the same buffer and the so prepared suspensions were incubated at 37° C. for 45 minutes, in an oscillating bath, for making easier the separation of the endogenous opioids from the receptors. At the end of the incubation the suspensions were centrifuged at 48,000×g, for 20 minutes at 4° C. and the resulting pellets resuspended in 40 volumes of the Tris HCl (50 mM) buffer, pH 7.4. The suspension of cerebral membranes was used for the binding tests. […]

[3] = molecular target: T2, μ opioidergic receptors (Mus musculus, UniProt P42866); assay: Radioreceptorial binding, μ opioidergic receptors ([3H]-DAMGO, mouse brain membranes); details: 1 nM [3H]-DAMGO, CD1 mouse brain membranes, 25° C., 60 minutes
T2 construct: from tissue; host or cells: CD1 mouse brain (excluding cerebellum) membranes
T2 sequence (P42866 whole entry): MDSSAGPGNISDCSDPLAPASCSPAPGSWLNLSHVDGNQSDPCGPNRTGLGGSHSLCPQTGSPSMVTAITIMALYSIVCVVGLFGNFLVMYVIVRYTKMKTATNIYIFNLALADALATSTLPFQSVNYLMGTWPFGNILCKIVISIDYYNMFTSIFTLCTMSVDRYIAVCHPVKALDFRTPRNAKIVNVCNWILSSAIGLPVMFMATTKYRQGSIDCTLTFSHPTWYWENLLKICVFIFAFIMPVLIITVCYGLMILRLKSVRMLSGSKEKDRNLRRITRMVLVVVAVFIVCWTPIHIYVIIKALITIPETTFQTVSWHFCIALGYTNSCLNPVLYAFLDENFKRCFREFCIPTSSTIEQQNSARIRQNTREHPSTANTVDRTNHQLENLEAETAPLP

[4] = molecular target: T3, δ opioidergic receptors (Mus musculus, UniProt P32300); assay: Radioreceptorial binding, δ opioidergic receptors ([3H]-DPDPE, mouse brain membranes); details: 1 nM [3H]-DPDPE, CD1 mouse brain membranes, 25° C., 60 minutes
T3 construct: from tissue; host or cells: CD1 mouse vas deferens segments (isolated organ)
T3 sequence (P32300 whole entry): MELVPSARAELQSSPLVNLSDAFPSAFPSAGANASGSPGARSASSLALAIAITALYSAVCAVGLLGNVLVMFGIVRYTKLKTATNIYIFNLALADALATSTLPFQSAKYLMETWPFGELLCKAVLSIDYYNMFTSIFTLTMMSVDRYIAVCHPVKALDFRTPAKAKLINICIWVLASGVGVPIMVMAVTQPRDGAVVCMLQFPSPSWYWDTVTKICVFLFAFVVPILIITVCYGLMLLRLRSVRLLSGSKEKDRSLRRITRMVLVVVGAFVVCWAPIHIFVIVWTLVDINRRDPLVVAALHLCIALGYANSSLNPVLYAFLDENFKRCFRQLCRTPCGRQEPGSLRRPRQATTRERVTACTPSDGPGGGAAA

Compound | MPE % ([1]; 20 min) | MPE % ([1]; 40 min) | MPE % ([1]; 60 min) | MPE % ([1]; 120 min) | Ki [2] | Ki [3] | Ki [4] | MPE % ([1]; 30 min) | MPE % ([1]; 240 min) | Ki ([2]; 3H-U 69.593, CD1 mouse brain membranes, 25° C., 60 minutes, read-out: Ki k)
C=CCN1C2CCC1C1CCC2N1C(c1ccc(C(=O)N(CC)CC)cc1)c1cccc(OC)c1 (centres unmarked) [Example 6.1, 4-[(10-allyl-9,10-diazatricyclo[4.2.1.1^2,5]dec-9-yl)-(3-methoxyphenyl)methyl]-N,N-diethylbenzamide] | 15.1 ± 3.5% | 50.1 ± 12.0% | 20.0 ± 3.0% | 13.2 ± 2.8% | 55 ± 25 nM | 1630 ± 186 nM | 0.203 ± 0.032 nM |  |  | 
C=CCN1C2CCC1C1CCC2N1C(c1ccc(C(=O)N(CC)CC)cc1)c1cccc(O)c1 (centres unmarked) [Example 6.9, 4-[(10-allyl-9,10-diazatricyclo[4.2.1.1^2,5]dec-9-yl)-(3-hydroxyphenyl)methyl]-N,N-diethylbenzamide] |  |  | 32.8 ± 10.0% | 18.5 ± 2.0% |  | 20 ± 0.5 nM | 0.23 ± 0.03 nM | 30.1 ± 2.7% | 1.2 ± 0.6% | 4.8 ± 0.9 nM
